Measured values from PMC5342726, “Identification of small molecule inhibitors of ERCC1-XPF that inhibit DNA repair and potentiate cisplatin efficacy in cancer cells” (Oncotarget, 2016).

Legend:
[1] = test system: H460 cells; test: Colony survival assay in H460 cells; type: cell-based; settings: SAR, Supplementary Figure S6; cell line not stated
Experimental: We used H460, NSCLC cells, to first assess the impact on colony survival by knocking down ERCC1-XPF in these cells. […] Next, to assess if colony survival is affected we titrated cisplatin in these cells using a fixed concentration of Hit 1(50 μM) or Hit 2 (25 and 50 μM). […] Next, we assessed cisplatin potentiation by treating cells at a fixed cisplatin concentration (cisplatin IC50 in H460 cells) with Hit 1 or 2 titration (Figure 4C, filled symbols). H460 cells were treated with compound for a total of 4 hours while cisplatin was added to the media after 2 hours of compound pre-treatment. […] We also titrated Hit 1 or Hit 2 alone in these cells and treated for 4 h. […] We also assessed the effects of Hit 2 in another NSCLC cell line (H1299), which was either ERCC1 wildtype (WT) or knockout (KO) (Figure 4E).
Colony survival assay in a total reaction volume of 2.4 mL in a six-well plate Cells were split and seeded at a density of 300-400 format. Cells were transfected for 48 hours after which cells in a 60 mm plate and incubated overnight. The next complete media was added for 24 hours. Cells were day, the cells were treated with a fixed concentration of the seeded for clones and clones were selected using standard compound (Hit 1 or Hit 2) with cisplatin titration. After methods. ERCC1 KO clones were tested for ERCC1 treatment, fresh complete medium with antibiotics was and XPF expression by Western Blot using the ERCC1 added and the cells were then allowed to form colonies. In antibodies, 8F1, FL-297, and D-10 and the XPF antibody another method, the cells were seeded onto 60mm plates 3F2/3 (Santa Cruz).
Validation of genome editing was performed alone or titrated with a fixed concentration of cisplatin by PCR amplification with Taq polymerase (NEB) of (IC50 for the cell line used). Post treatment, the cells were exon 2 within the genomic DNA using the forward allowed to form colonies. Colonies were fixed with 95% primer: 5’ […]
methanol and stained with 0.2 % crystal violet. Colonies 3’ and the reverse primer: 5’ […]
with ≥50 cells were counted using a light microscope. Cell […] 3’. PCR product was cloned […]
survival was expressed as the ratio of average number of into a linearized pCR4-TOPO vector and transformed colonies in drug treated cells versus control cells x 100. into OneShot TOP10 E. coli using the TOPO-TA Cloning The experiment was done in triplicate for each drug Kit for Sequencing (Thermofisher). Bacterial colonies concentration. We have previously published the methods were selected with ampicillin and plasmid was extracted for ERCC1 and XPF knockdowns, which were used as using standard procedures. Plasmid was sequenced by controls. Briefly, cells were seeded onto six-well plates GeneWiz using an M13R primer. Potential sites of off-target editing in coding sequences were identified during
(density 2.5 × 10^5 cells /well) in antibiotic free media. guide RNA design with the Optimized CRISPR Design Two transfections were done at 24 h interval in each cell Tool. Primers were designed to amplify the exons line to knockdown ERCC1-XPF together according to containing the potential off-target sites and PCR product the manufacturer ’s (Dharmacon’s smartpools) protocol. was sequenced by GeneWiz. A list of specific off-target Addition of lipid reagent (Dharmafect 2, Dharmacon) sites and primers used to assess these off-target effects are […]

[2] = biological target: T1, ERCC1-XPF (Homo sapiens, UniProt P07992+Q92889); test: HTS fluorescence assay of ERCC1-XPF endonuclease activity; type: biochemical; settings: IC50s calculated by CompuSyn, SD from 3 plots, read-out: ERCC1-XPF IC50
T1 construct: made in house; host or cells: Sf9 insect cells, baculovirus (obtained from Aziz Sancar)
T1 sequence (Q92889 1-916): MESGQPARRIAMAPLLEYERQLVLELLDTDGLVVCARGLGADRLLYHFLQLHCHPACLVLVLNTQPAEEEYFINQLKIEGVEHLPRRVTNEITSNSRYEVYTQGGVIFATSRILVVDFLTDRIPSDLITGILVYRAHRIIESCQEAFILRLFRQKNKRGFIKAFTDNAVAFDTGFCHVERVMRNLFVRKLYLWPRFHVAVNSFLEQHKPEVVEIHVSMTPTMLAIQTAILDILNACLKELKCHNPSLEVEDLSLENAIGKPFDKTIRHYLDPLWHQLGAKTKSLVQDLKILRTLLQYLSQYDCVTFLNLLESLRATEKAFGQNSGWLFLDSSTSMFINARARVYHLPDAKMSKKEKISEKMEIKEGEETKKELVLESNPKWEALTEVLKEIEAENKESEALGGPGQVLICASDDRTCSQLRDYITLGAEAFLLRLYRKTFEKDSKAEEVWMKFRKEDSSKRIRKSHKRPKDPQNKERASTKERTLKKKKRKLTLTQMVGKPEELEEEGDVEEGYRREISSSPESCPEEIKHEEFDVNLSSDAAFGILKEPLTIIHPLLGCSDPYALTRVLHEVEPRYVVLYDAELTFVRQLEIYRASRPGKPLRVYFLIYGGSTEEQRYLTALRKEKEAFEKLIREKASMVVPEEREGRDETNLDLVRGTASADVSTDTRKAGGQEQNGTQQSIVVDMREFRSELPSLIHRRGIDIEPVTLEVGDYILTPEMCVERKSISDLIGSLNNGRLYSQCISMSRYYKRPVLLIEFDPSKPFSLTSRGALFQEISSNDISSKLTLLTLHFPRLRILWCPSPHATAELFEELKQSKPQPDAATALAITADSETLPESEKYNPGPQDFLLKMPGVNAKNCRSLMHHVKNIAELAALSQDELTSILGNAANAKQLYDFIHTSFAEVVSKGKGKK
T1 sequence (P07992 1-297): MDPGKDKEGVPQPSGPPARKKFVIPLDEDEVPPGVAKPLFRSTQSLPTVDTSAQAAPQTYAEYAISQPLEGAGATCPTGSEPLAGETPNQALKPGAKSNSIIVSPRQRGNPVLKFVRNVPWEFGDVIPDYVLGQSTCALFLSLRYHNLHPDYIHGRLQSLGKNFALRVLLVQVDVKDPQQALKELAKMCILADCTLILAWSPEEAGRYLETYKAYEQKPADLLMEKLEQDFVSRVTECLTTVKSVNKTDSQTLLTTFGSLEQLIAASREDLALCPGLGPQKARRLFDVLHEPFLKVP
Source text: To screen for ERCC1-XPF inhibition, an existing in vitro assay was optimized to a 96-well plate format to allow for screening of compound libraries (NCI-DTP diversity set). These compounds and subsequent vialed compounds were from the Drug Synthesis and Chemistry Branch, Developmental Therapeutics Program, Division of Cancer Treatment and Diagnosis at the National Cancer Institute. We used purified ERCC1-XPF (Supplementary Figure S1) and describe the purification procedure in Supplementary Information. The initial cuvette-based assay was optimized for DNA, MgCl2 concentrations as well as the incubation time to be used in the fluorescence assay in a 96 well plate format (Supplementary Figure S2). The assay consists of a 10 nM DNA (Q+Fl substrate annealed, described below) and 7.5 nM ERCC1-XPF protein in buffer containing 50 mM Tris-HCl pH8.0, 2 mM MgCl2, 0.1 mM BSA, and 0.5 mM β-mercaptoethanol. For preliminary screening, 150 μL of DNA was added to each well and the fluorescence signal was measured at 525 nm following excitation at 485 nm. Compounds or controls were then added to individual wells for a total of 80 compounds on each plate and the fluorescent signal was re-measured. We initially ran the screen using 50 μM compound and then repeated using 10 μM compound. 16 controls were used per plate, which consisted of buffer alone, DNA alone, ERCC1-XPF alone, 10 nM fluorescein ssDNA (positive signal), and 10 nM Q-Fl DNA with 7.5 nM ERCC1-XPF (positive signal). 7.5 nM ERCC1-XPF was added to each well containing the compounds and DNA and incubated for 30 minutes at 37°C after which the fluorescent signal was measured again.
The synthetic DNA substrate mimics a native forked ssDNA-dsDNA substrate of ERCC1-XPF (Figure 1A). This forked DNA substrate has a dsDNA region (14 bases) and a region containing two ssDNA flaps (12 bases each). One 26-mer DNA oligonucleotide contains a site-specific fluorescein modification at the indicated position (Fl Oligo: 5' - GCCAGCGCTCGGAT(AminoC6dT)(FLSN) TTTTTTTTTTT). The semi-complementary strand was synthesized containing a DABCYL quencher (Q) molecule at the depicted position (Q Oligo: 5' - TTTTTTTTTTT (AminoC6dT)(Dabcyl) ATCCGAGCGCTGGC; Figure 1A). The fluorescein (*) molecule has an excitation peak centered at 485 nm and an emission peak centered at 525 nm. The quencher (Q) molecule is able to quench the fluorescence signal of the fluorescein when it is in close proximity. The design of the semi-duplex DNA substrate is such that the fluorescein and DABCYL quencher are directly opposite one another at the double-stranded and single-stranded DNA junction (Figure 1A). […] Upon cleavage by ERCC1-XPF, (~4-5 bases from the dsDNA-ssDNA) the fluorescein label on the cleaved DNA is released into solution and results in a significant increase in fluorescence as the quencher is no longer in close proximity. The DNA substrate is also incorporated with a restriction enzyme site (HhaI) within the duplex DNA that results in a cleavage pattern similar to ERCC1-XPF. This serves as a positive control and allows assessment of ERCC1-XPF cleavage product. This DNA substrate is used in the solution based fluorescence screening assay to screen for inhibitors of ERCC1-XPF endonuclease activity. In the 96 well platform, the Z factor was calculated to be ~0.87 indicating a highly robust assay and highly suitable for a HTS. A Molecular Devices Spectramax M5 plate reader was used for fluorescence detection. The DNA substrate was the same for gel-based assays besides the fluorescent/quencher modifications and 5'-labeling using γ-ATP^32. For the secondary screen, the reaction was setup in a tube with 10 nM DNA, 7.5 nM XPF-ERCC1, 20 U/ml of HhaI, or 7.5 nM XPG (Supplementary Figure S3A) in nuclease reaction buffer with compound titration and incubated at 37°C for 30 minutes. The reaction was stopped by chelating the metal in the buffer and read in the Spectramax M5 plate reader.

[3] = test system: H460 cells; test: Cisplatin intrastrand adduct repair by ELISA; type: cell-based; settings: 72 hours (last time point), compound 15 μM 2 h then cisplatin at IC90 2 h; relative to 0 hour
[4] = test system: H460 xenografts; settings: 16168 20 mg/kg i.p. daily or cisplatin 3 mg/kg i.p. twice a week, 10 days
[5] = test system: H460 cells; test: Cisplatin interstrand crosslink repair by comet assay; type: cell-based; settings: 72 hours, cisplatin at IC90 alone
Experimental: (B) After treatment, comet assay was performed as described at different time intervals (0, 24, 48 and 72 h). The percentage of interstrand crosslinks remaining was calculated using olive tail moment. Results are represented as mean ± SEM of three independent experiments.
The data is expressed as the percentage of crosslinks remaining at the time points assessed.
Cells were treated with compound (Hit control (9:1 DMSO-glycerol). After incubation at 37°C 1 or Hit 2) and cisplatin or just cisplatin alone in serum for 30 minutes, 2 μL of the pre-incubate was diluted into a free media. […] Cells were further treated with 100 μM
Cells were then trypsinized, pelleted and resuspended in 1% low melting point agarose.

For `Oc1cc(O)c2c(c1)O[C@H](c1ccc(O)c(O)c1)[C@@H](O)[C@@H]2c1c(O)cc(O)c2c1O[C@H](c1ccc(O)c(O)c1)[C@@H](O)C2` [Procyanidin B3], the “potentiation of cisplatin by structural analogues in cell culture / colony survival” value [1] was “activity for only one of the structural analogues”.

For `C[C@@H](O)CN(CCN(C[C@@H](C)O)C[C@@H](C)O)C[C@@H](C)O.O=[N+]([O-])O.[Cu]` [NSC103019], the IC50 [2] was 530 ± 128 nM.

`N.N.[Cl][Pt][Cl]` [Cisplatin, cis-diammine-dichloroplatinum (II)] was tested, and the intrastrand adducts remaining [3] was ~ 15%, the “tumor growth, single agent” value [4] was “initial tumor response that delayed tumor growth” and the ICLs remaining [5] was 1-5%.

`NC(=O)C[S+]([O-])CC(N)C(=O)O` (stereo not shown) [NSC14161] gave an IC50 [2] of 790 ± 350 nM.

In the case of `O=S(=O)(NCCO)c1cc[c]([Sb](=[O])([OH])[OH])cc1` [NSC13776], the IC50 [2] is reported as 1150 ± 960 nM.
